Assay results reported in article PMC9582434, “Ryanodine receptor-active non-dioxin-like polychlorinated biphenyls cause neurobehavioral deficits in larval zebrafish” (Frontiers in Toxicology, 2022).

Legend:
[1] = PCB body burden in larvae at 5 dpf by gas chromatography; assay type: in vivo, zebrafish; conditions: for % uptake (measured uptake/theoretical uptake × 100): averaged across 0.1, 1 and 10 µM, larvae at 5 dpf; for larval body burden relative to the other tested PCBs: exposure 6 hpf to 5 dpf
Procedure: PCB body burden was assessed at 5 dpf by pressurized liquid extraction Dionex ASE200 system (Thermo Scientific, Sunnyvale, CA, United States) ([Wu et al., 2015]). Briefly, zebrafish larvae samples (n = 36–51 per sample) were mixed with diatomaceous earth (2 g) and placed in an extraction cell (33 ml) containing Florisil (60–100 mesh, 12 g, Fisher Scientific, Fair Lawn, NJ, United States). PCB 117 (100 ng) was added to each sample as surrogate recovery standard, and the cells were extracted with hexane-acetone (1:1, v/v) at 100°C and 1,500 psi (10 MPa) with preheat equilibration for 6 min, 35% of cell flush volume and 1 static cycle of 5 min. Method blanks containing only Florisil and diatomaceous earth and sample blanks with naïve (unexposed) and/or DMSO-exposed zebrafish larvae were extracted in parallel with each sample set. The extracts were concentrated to approximately 0.75 ml using a Turbo Vap II (Biotage, Charlotte, NC, United States) and transferred to glass tubes. Samples were further cleaned up, as described previously, to remove sulfur and other impurities ([Kania-Korwel et al., 2007]). All samples were spiked with PCB 204 (100 ng) as internal standard (volume corrector) prior to gas chromatographic analysis.
Analysis of PCBs was performed in the splitless mode on an Agilent 7890 gas chromatograph equipped with a ^63Ni micro electron capture detector (µECD) and a SPB-1 capillary column (length, 60 m; inner diameter, 250 μm; and 0.25 µm film thickness; Supelco, St. Louis, MO, United States) ([Wu et al., 2013]). The following temperature program was used based on a published method ([Kania-Korwel et al., 2011]): hold at 80°C for 1 min, 20°C/min to 215°C, then 0.1°C/min to 219.5°C, and 20°C/min to 280°C, then hold at 280°C for 3 min. A constant helium flow rate of 1 ml/min was used for all analyses. The injector and detector temperatures were 250°C and 300°C, respectively. The ^63Ni-μECD used for the PCB analysis was linear up to concentrations of 1,000 ng/ml for all analytes investigated (R ^2 > 0.999). The recovery of PCB 117 was 83 ± 7% (range: 71–97%). A detailed summary of the limits of detection, limits of quantification, and background levels of the analyzed PCBs is presented in Supplementary Table S1.
The neurotoxic potential of the congeners tested in this study were ranked based on the three endpoints measured in this study: RYR binding, behavior, and body burden. Congeners were ranked relative to each other for each individual endpoint from 1 (highest) to 6 (lowest), and then the three scores for each congener averaged to obtain an overall relative ranking for each congener. Ranking for RYR activation was based on EC2X values and their relative comparisons. Behavior ranking represents the total change from control for each congener across all epochs (L1, D1, L2, and D2) and all days (3, 4, and 5 dpf) tested. AUC values were normalized to the appropriate DMSO control (AUC value/DMSO). Each value was then subtracted from 1 to determine the deviation from the control values [1 − (AUC value/DMSO)]. Absolute values were combined for all concentrations of each congener across all time points (epochs and testing days). PCB body burden was ranked as the percentage uptake using the following calculation: (uptake/total PCB) × 100, where, the uptake values were the measured PCB levels in the samples, and the total PCB values were calculated using the exposure concentration (0.1, 1, or 10 μM) and volume (200 μl). The resulting values were averaged across the three assayed concentrations and rounded to the closest integer to obtain the final ranking order.

RYR = system: RYR; set-up: method as in Pessah et al., 2006; Holland et al., 2017a; conditions: ref Pessah et al., 2006; Holland et al., 2017a; cited from earlier work

Structure (SMILES)	% uptake (measured uptake/theoretical uptake × 100) [1]	in vitro potency at the RYR (in words) (RYR)	larval body burden relative to the other tested PCBs [1]
Clc1ccc(Cl)c(-c2c(Cl)ccc(Cl)c2Cl)c1 [PCB 95, 2,2',3,5',6-pentachlorobiphenyl]	7.4%	potent	–
Clc1cc(Cl)c(-c2cc(Cl)c(Cl)cc2Cl)cc1Cl [PCB 153, 2,2',4,4',5,5'-Hexachlorobiphenyl]	1.4%	moderate	lowest
Clc1cccc(-c2c(Cl)ccc(Cl)c2Cl)c1Cl [PCB 84]	9.2%	potent	–
Clc1ccc(-c2ccc(Cl)c(Cl)c2)c(Cl)c1 [PCB 66]	5.6%	negligible	–
Clc1ccc(-c2ccc(Cl)cc2Cl)cc1 [PCB 28]	4.5%	negligible	–
Clc1cc(Cl)c(-c2ccc(Cl)c(Cl)c2Cl)cc1Cl [PCB 138]	13.8%	moderate	highest
